For assay [1], the target named is hGYS1 enzyme (recombinant hGYS1/GN1 protein) (Homo sapiens (Human), UniProt P13807). In words: GYS1 coupled enzyme assay (PK/LDH). The format is biochemical. As to conditions: hGYS1/GN1 50 nM, UDP-Glucose 0.8 mM, G6P 1 mM; geometric mean of at least 2 runs.
Assay [2] concerns hGYS1 enzyme / glycogen synthesis in HeLa cells. In words: GYS1 cell based assay (glycogen synthesis, Glucose-glo). More on the design: species or system human. As to conditions: 24 h incubation, 20 mM glucose, geometric mean of at least 2 runs. The essentials: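 HeLa cells starved 24 h in medium containing only 1× Glutamax were plated onto compound in medium with 20 mM glucose (1% DMSO final) for 24 h, 37 °C, 5% CO2. Acid lysates were Tris-quenched, glucoamylase-digested (pH 5.3, 1 h, 37 °C) and read by Glucose-glo luminescence. IC50 came from Hill fits, as geometric mean of ≥2 runs.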

For assay [3], the target named is hGYS2 enzyme (recombinant hGYS2/GN1 protein) (Homo sapiens (Human), UniProt P54840). In words: GYS2 coupled enzyme assay (PK/LDH). As to conditions: geometric mean of at least 2 assay runs on separate days, read-out: Avg_IC50. The format is biochemical. The method, boiled down: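 IC50 came from Hill fits of duplicate percent inhibition, based on control-normalized slopes of 340 nm NADH decline read each minute for 10 min. The reaction held recombinant hGYS2/GN1 (200 nM) with glycogen, UDP-glucose, G6P and PEP, plus PK/LDH coupling at pH 7.5 and 2.5% DMSO.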

Where only a bound is given, the exact number is not on record here.

Sequence of hGYS2 enzyme (recombinant hGYS2/GN1 protein) (P54840 whole entry): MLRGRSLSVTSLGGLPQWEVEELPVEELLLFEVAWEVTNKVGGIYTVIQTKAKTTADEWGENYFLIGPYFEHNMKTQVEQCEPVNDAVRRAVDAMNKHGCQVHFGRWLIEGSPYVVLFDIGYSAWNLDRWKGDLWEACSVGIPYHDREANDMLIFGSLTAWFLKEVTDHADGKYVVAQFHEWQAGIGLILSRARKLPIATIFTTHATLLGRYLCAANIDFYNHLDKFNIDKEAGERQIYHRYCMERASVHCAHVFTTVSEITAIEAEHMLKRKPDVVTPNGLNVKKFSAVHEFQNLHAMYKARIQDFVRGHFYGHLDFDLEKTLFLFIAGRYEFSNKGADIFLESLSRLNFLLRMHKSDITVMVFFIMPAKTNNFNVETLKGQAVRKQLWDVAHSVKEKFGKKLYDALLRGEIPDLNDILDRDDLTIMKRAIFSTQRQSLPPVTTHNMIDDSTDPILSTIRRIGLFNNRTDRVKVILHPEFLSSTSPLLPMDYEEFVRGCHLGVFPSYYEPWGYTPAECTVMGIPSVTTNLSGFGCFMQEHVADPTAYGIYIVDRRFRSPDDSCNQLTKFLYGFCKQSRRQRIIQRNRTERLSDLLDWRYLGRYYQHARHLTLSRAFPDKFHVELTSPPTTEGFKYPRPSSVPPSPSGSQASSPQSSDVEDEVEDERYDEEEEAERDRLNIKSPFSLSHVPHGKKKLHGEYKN
Sequence of hGYS2 enzyme (recombinant hGYS2/GN1 protein) (P46976 whole entry partner): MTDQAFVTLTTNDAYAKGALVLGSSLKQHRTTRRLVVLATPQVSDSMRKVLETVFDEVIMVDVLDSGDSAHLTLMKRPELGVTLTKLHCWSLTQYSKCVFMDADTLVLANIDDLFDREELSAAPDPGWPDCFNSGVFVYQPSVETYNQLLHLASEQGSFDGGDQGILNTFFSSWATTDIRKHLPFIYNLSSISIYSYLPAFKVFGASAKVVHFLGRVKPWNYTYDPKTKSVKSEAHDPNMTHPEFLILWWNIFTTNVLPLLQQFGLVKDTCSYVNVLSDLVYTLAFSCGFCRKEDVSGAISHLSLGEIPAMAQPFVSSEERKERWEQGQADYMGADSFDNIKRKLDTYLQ
Sequence of hGYS1 enzyme (recombinant hGYS1/GN1 protein) (P13807 whole entry): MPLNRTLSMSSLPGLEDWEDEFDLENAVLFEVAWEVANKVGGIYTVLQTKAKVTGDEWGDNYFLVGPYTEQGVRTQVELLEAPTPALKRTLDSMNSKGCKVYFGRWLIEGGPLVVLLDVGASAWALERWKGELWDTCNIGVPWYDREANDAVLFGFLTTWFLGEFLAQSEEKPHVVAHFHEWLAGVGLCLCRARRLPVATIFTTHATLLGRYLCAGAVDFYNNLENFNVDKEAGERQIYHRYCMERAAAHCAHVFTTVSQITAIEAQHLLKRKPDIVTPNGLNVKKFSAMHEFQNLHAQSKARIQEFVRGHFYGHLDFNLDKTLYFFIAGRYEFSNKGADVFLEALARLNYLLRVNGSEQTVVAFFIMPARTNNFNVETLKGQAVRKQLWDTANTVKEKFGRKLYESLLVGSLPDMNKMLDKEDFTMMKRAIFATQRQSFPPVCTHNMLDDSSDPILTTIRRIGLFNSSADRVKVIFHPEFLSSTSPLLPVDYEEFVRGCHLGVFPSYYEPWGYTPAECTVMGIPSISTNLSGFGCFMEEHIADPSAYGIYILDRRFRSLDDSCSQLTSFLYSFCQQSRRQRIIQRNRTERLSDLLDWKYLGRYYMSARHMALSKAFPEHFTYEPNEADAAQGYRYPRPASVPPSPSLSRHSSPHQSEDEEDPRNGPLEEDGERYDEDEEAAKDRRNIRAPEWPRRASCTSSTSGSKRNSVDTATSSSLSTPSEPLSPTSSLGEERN
Sequence of hGYS1 enzyme (recombinant hGYS1/GN1 protein) (P46976 whole entry partner): as the sequence (P46976 whole entry partner) above

Turning to `CC(C)c1ccc([C@@H](NC(=O)[C@@H]2C[C@@H](F)CN2C(=O)C(C)c2cnn[nH]2)c2ccccc2)cc1F` (single isomer, unassigned) [Compound 769, (2S,4R)-4-fluoro-N-[(S)-[3-fluoro-4-(propan-2-yl)phenyl](phenyl)methyl]-1-[(2R) or (2S)-2-(1H-1,2,3-triazol-5-yl)propanoyl]pyrrolidine-2-carboxamide], the IC50 in assay [1] is 0.022 µM; in assay [2] (Homo sapiens, HeLa, 24 h) it was 0.29 µM; in assay [3], more than 100 µM.
`CC(C)c1ccc([C@@H](NC(=O)[C@@H]2C[C@@H](F)CN2C(=O)C(C)n2ccnc2)c2ccccc2)cc1F` (single isomer, unassigned) [Compound 771, (2S,4R)-4-fluoro-N-[(S)-[3-fluoro-4-(propan-2-yl)phenyl](phenyl)methyl]-1-[(2S) or (2R)-2-(1H-imidazol-1-yl)propanoyl]pyrrolidine-2-carboxamide]: the results for the IC50 in assay [1], in assay [2] and in assay [3] were 0.033 µM, 0.54 µM and more than 100 µM, respectively.
Turning to `O=C1Nc2ccccc2C1CC(=O)N1C[C@H](F)C[C@H]1C(=O)N[C@@H](c1ccccc1)c1ccc(C2CC2)c(F)c1` (stereo partly drawn) [Compound 467, (2S,4R)-N-[(S)-(4-cyclopropyl-3-fluorophenyl)(phenyl)methyl]-4-fluoro-1-[2-(2-oxo-2,3-dihydro-1H-indol-3-yl)acetyl]pyrrolidine-2-carboxamide], the IC50 is 0.324 µM in assay [1]; 4.81 µM in assay [2] (Homo sapiens, HeLa, 24 h); more than 100 µM in assay [3].
For the compound `Cc1cnnn1CC(=O)N1C[C@H](F)C[C@H]1C(=O)N[C@@H](c1ccccc1)c1ccc(C(C)C)c(F)c1` [Compound 374, (2S,4R)-4-fluoro-N-[(S)-[3-fluoro-4-(propan-2-yl)phenyl](phenyl)methyl]-1-[2-(5-methyl-1H-1,2,3-triazol-1-yl)acetyl]pyrrolidine-2-carboxamide], the IC50 in assay [1] is 0.022 µM; in assay [2] (Homo sapiens, HeLa, 24 h) it was 0.36 µM; in assay [3], more than 100 µM.
Taken in the same sequence, the figures for `CC(C)c1ccc([C@@H](NC(=O)[C@@H]2C[C@@H](F)CN2C(=O)Cn2nccn2)c2ccccc2)cc1` [Compound 17, (2S,4R)-4-fluoro-N-[(S)-phenyl[4-(propan-2-yl)phenyl]methyl]-1-[2-(2H-1,2,3-triazol-2-yl)acetyl]pyrrolidine-2-carboxamide] were 0.034 µM, 0.33 µM and more than 100 µM.
For the compound `CCC(C)c1ccc(C(NC(=O)[C@@H]2C[C@@H](F)CN2C(=O)Cc2cnn[nH]2)c2ccccc2)cc1F` (single isomer, unassigned) [Compound 676, (2S,4R)-N-[(R) or (S)-{4-[(2R) or (2S)-butan-2-yl]-3-fluorophenyl}(phenyl)methyl]-4-fluoro-1-[2-(1H-1,2,3-triazol-5-yl)acetyl]pyrrolidine-2-carboxamide], the IC50 in assay [1] is 0.554 µM; in assay [2], 14 µM; in assay [3] it was more than 100 µM.
For `Cc1nn(CC(=O)N2C[C@H](F)C[C@H]2C(=O)N[C@@H](c2ccccc2)c2ccc(C3CC3)c(F)n2)c(=O)o1` [Compound 316, (2S,4R)-N-[(S)-(5-cyclopropyl-6-fluoropyridin-2-yl)(phenyl)methyl]-4-fluoro-1-[2-(5-methyl-2-oxo-2,3-dihydro-1,3,4-oxadiazol-3-yl)acetyl]pyrrolidine-2-carboxamide], the IC50 was 0.037 µM in assay [1]; 0.93 µM in assay [2] (Homo sapiens, HeLa, 24 h); more than 100 µM in assay [3].
Taken in the same sequence, the figures for `O=C(N[C@@H](c1ccccc1)c1ccc(C2CC2)c(F)c1)[C@@H]1C[C@@H](F)CN1C(=O)Cn1c(=O)[nH]c2ccccc21` [Compound 456, (2S,4R)-N-[(S)-(4-cyclopropyl-3-fluorophenyl)(phenyl)methyl]-4-fluoro-1-[2-(2-oxo-2,3-dihydro-1H-1,3-benzodiazol-1-yl)acetyl]pyrrolidine-2-carboxamide] were 0.055 µM, 1.08 µM and more than 100 µM.
Taken in the same sequence, the figures for `Cc1nc2ccccc2n1CC(=O)N1C[C@H](F)C[C@H]1C(=O)N[C@@H](c1ccccc1)c1ccc(C2CC2)c(F)c1` [Compound 464, (2S,4R)-N-[(S)-(4-cyclopropyl-3-fluorophenyl)(phenyl)methyl]-4-fluoro-1-[2-(2-methyl-1H-1,3-benzodiazol-1-yl)acetyl]pyrrolidine-2-carboxamide] were 0.023 µM, 0.65 µM and more than 100 µM.
Taken in the same sequence, the figures for `CC(C)c1ccc([C@@H](NC(=O)[C@@H]2C[C@@H](F)CN2C(=O)Cn2nnnc2C(F)F)c2ccccc2)nc1` [Compound 254, (2S,4R)-1-{2-[5-(difluoromethyl)-1H-1,2,3-tetrazol-1-yl]acetyl}-4-fluoro-N-[(S)-phenyl[5-(propan-2-yl)pyridin-2-yl]methyl]pyrrolidine-2-carboxamide] were 0.075 µM, 1.23 µM and more than 100 µM.
As for `CC(C)c1ccc([C@@H](NC(=O)[C@@H]2C[C@@H](F)CN2C(=O)Cn2nnc(C(F)F)n2)c2ccccc2)nc1` [Compound 256, (2S,4R)-1-{2-[5-(difluoromethyl)-2H-1,2,3,4-tetrazol-2-yl]acetyl}-4-fluoro-N-[(S)-phenyl[5-(propan-2-yl)pyridin-2-yl]methyl]pyrrolidine-2-carboxamide], the IC50 was 0.039 µM in assay [1]; 0.99 µM in assay [2] (Homo sapiens, HeLa, 24 h); more than 100 µM in assay [3].
Taken in the same sequence, the figures for `CC(=O)NCc1nnc(CC(=O)N2C[C@H](F)C[C@H]2C(=O)N[C@@H](c2ccccc2)c2ccc(C(C)C)cc2)o1` [Compound 239, (2S,4R)-1-{2-[5-(acetamidomethyl)-1,3,4-oxadiazol-2-yl]acetyl}-4-fluoro-N-[(S)-phenyl[4-(propan-2-yl)phenyl]methyl]pyrrolidine-2-carboxamide] were 0.067 µM, 1.56 µM and more than 100 µM.
Taken in the same sequence, the figures for `O=C(N[C@@H](c1ccccc1)c1ccc(C2CC(F)(F)C2)cn1)[C@@H]1C[C@@H](F)CN1C(=O)Cn1cnc2ccccc21` [Compound 537, (2S,4R)-1-[2-(1H-1,3-benzodiazol-1-yl)acetyl]-N-[(S)-[5-(3,3-difluorocyclobutyl)pyridin-2-yl] (phenyl)methyl]-4-fluoropyrrolidine-2-carboxamide] were 0.011 µM, 0.16 µM and more than 100 µM.
Taken in the same sequence, the figures for `CC(C)c1c(F)cc(C(NC(=O)[C@@H]2C[C@@H](F)CN2C(=O)Cn2ccnn2)c2ccccc2)cc1F` (single isomer, unassigned) [Compound 668, (2S,4R)-N-[(S) or (R)-[3,5-difluoro-4-(propan-2-yl)phenyl](phenyl)methyl]-4-fluoro-1-[2-(1H-1,2,3-triazol-1-yl)acetyl]pyrrolidine-2-carboxamide] were 0.025 µM, 0.32 µM and more than 100 µM.
Regarding `CC(C)c1ccc([C@@H](NC(=O)[C@@H]2C[C@@H](F)CN2C(=O)Cc2ccc(=O)[nH]c2)c2ccccc2)nc1F` [Compound 791, (2S,4R)-4-fluoro-N-[(S)-[6-fluoro-5-(propan-2-yl)pyridin-2-yl](phenyl)methyl]-1-[2-(6-oxo-1,6-dihydropyridin-3-yl)acetyl]pyrrolidine-2-carboxamide], the IC50 in assay [1] is 0.007 µM; in assay [2] (Homo sapiens, HeLa, 24 h) it was 0.39 µM; in assay [3] it was more than 100 µM.
For the compound `O=C(N[C@@H](c1ccccc1)c1ccc(C2CC(F)(F)C2)cn1)[C@@H]1C[C@@H](F)CN1C(=O)Cc1[nH]nnc1C(F)(F)F` [Compound 542, (2S,4R)-N-[(S)-[5-(3,3-difluorocyclobutyl)pyridin-2-yl] (phenyl)methyl]-4-fluoro-1-{2-[4-(trifluoromethyl)-1H-1,2,3-triazol-5-yl]acetyl} pyrrolidine-2-carboxamide], the IC50 in assay [1] is 0.011 µM; in assay [2] (Homo sapiens, HeLa, 24 h), 1.48 µM; in assay [3], more than 100 µM.
Taken in the same sequence, the figures for `CC[C@@H]1CN(C(C)=O)C[C@@H]1C(=O)N1C[C@H](F)C[C@H]1C(=O)N[C@@H](c1ccccc1)c1ccc(C(C)C)cc1` [Compound 179, (2S,4R)-1-[(3R,4S)-1-acetyl-4-ethylpyrrolidine-3-carbonyl]-4-fluoro-N-[(S)-phenyl[4-(propan-2-yl)phenyl]methyl]pyrrolidine-2-carboxamide] were 0.031 µM, 0.4 µM and more than 100 µM.
Taken in the same sequence, the figures for `O=C(N[C@@H](c1ccccc1)c1ccc(C2CC2)c(F)c1)[C@@H]1C[C@@H](F)CN1C(=O)CNC(=O)N1CCN(CC2CC2)CC1` [Compound 490, N-{2-[(2S,4R)-2-{[(S)-(4-cyclopropyl-3-fluorophenyl)(phenyl)methyl]carbamoyl}-4-fluoropyrrolidin-1-yl]-2-oxoethyl}-4-(cyclopropylmethyl) piperazine-1-carboxamide] were 0.052 µM, 2.87 µM and more than 100 µM.
Consider `CC(C)c1ccc([C@@H](NC(=O)[C@@H]2C[C@@H](F)CN2C(=O)COc2cccnn2)c2ccccc2)cc1` [Compound 21, (2S,4R)-4-fluoro-N-[(S)-phenyl[4-(propan-2-yl)phenyl]methyl]-1-[2-(pyridazin-3-yloxy)acetyl]pyrrolidine-2-carboxamide], for which the IC50 was 0.027 µM in assay [1]; 0.47 µM in assay [2] (Homo sapiens, HeLa, 24 h); more than 100 µM in assay [3].

The record behind these values is patent US11814367B2, “Inhibitors of glycogen synthase 1 (GYS1) and methods of use thereof” (Maze Therapeutics, Inc., priority 2021, dated 2023).
